# Data published in patent US20120040956A1, “INHIBITORS OF HIF-1 PROTEIN ACCUMULATION” (INTERMED DISCOVERY GMBH, priority 2008, published 2012).
# What was measured:
# [1] = test system: human vasculature (CD34 positive vessels) from transplanted HUVECs; assay: Spheroid-based in vivo angiogenesis assay in SCID mice; settings: 0.3 mg/ml p.o. every 3rd day, pvalue=0.0001
# Excerpt: Human endothelial cells (ECs; HUVECs) are applied subcutaneously in (n=10) SCID mice embedded in extracellular matrix components in the presence of smooth muscle cells (SMCs) and fibroblasts (NHDFs). The transplanted human ECs (EC spheroids in combination with ECs in suspension) form a complex and perfused three dimensional network of capillaries of human origin that is anastomosed (connected with) with the mouse vasculature and host (mouse) pericyte-covered. The quality of the newly formed vasculature is monitored by micro vessel density counting. Aim of the study is to investigate the anti-angiogenic potential of the test items in the spheroid-based in vivo angiogenesis assay. […]
# In the standard assay (with VEGF-A and FGF-2 stimulation and only ECs) the first perfused vessels are usually detected at day 4 to day 6. […]
# For histological examination of the human vasculature, paraffin sections (thickness=8-10 μm) were prepared from all plugs. Blood vessel formation was detected by staining the sections for human CD34 (NCL-END, Menarini, Berlin, Germany). Three sections per plug were analysed and three images were taken from each section at a magnification of 200× using the Eclipse TE2000-U microscope (Nikon, Kanagawa, Japan). The area analyzed per section (three images) was 0.44 mm^2. […]
# HUVEC = assay: Spheroid-based angiogenesis assay, Deferoxamine (hypoxia) induced HUVEC sprouting; format: cell-based, human
# Description: (§1) Prior application the stock solution [100 mM] of IMD-019064 was diluted 1:10 in DMSO and serially diluted in half logarithmic steps covering the concentration range from 10 mM to 1 μM using 100% DMSO. The final assay concentration ranged from 100 μM to 10 nM with a final DMSO concentration in the assay of 1%. The experiments were pursued in modification of the originally published protocol (Korff and Augustin: J Cell Sci 112: 3249-58, 1999). In brief, spheroids were prepared as described by Korff and Augustin: J Cell Biol 143: 1341-52, 1998) by pipetting 500 endothelial cells (EC) in a hanging drop on plastic dishes to allow overnight spheroid aggregation. 50 EC spheroids were then embedded in 0.9 ml of a 3D collagen matrix and pipetted into individual wells of a 24 well plate to allow polymerization.
# (§2) Plates were incubated at 37° C. for 24 hours and fixed by adding 4% paraformaldehyde. The cumulative sprout length of 10 randomly selected spheroids per data point was analyzed and the relative inhibition by the test compound determined. Fitting of IC50 curves and calculation of IC50 values was performed with GraphPad Prism 5.01. Sprouting intensity of EC and fibroblast spheroids was quantitated by an image analysis system using an inverted microscope and the digital imaging software Analysis 3.2 (Soft imaging system, Munster, Germany). In parallel NHDF (fibroblast) spheroids were embedded in a 3D collagen gel and treated for 24 h with different concentrations of IMD-019064. The cumulative sprout length of 10 randomly selected spheroids per data point was analyzed according to the procedure used for the HUVEC experiment.
# The same assays were performed with IMD-026260; IMD-026259; Sutent® (Sunitinib) and Sorafenib (Nexavar®) (see Table 3 for final compound concentrations).
# NHDF (fibroblast) = NHDF (fibroblast) spheroid sprouting/scattering in 3D collagen gel; format: cell-based; settings: Homo sapiens, 24 h, 3D collagen gel, read-out: IC50, NHDF fibroblast spheroid sprouting/scattering
# Description: as §1, with “50 EC spheroids were then embedded in 0.9 ml of a 3D collagen matrix and pipetted into individual wells of a 24 well plate to allow polymerization.” left out
# as §2, with “Fitting of IC50 curves and calculation of IC50 values was performed with GraphPad Prism 5.01.” left out, “In parallel NHDF (fibroblast) spheroids were embedded in a 3D collagen gel and treated for 24 h with different concentrations of IMD-019064.” left out, “experiment. […]” for “experiment.”
# IKKy/NEMO = assay: Cellular protein translation in 293T cells (anti-IKKy/NEMO immunoblotting); format: cell-based, human; settings: 100 nM, 10 h and 24 h
# Description: 293T cells were grown in the presence of the known translation inhibitor cycloheximide (10 μg/ml) and 100 nM of IMD-019064, IMD-026259 and IMD-026260 respectively. […] Cells were harvested after 10 h and 24 h and cell lysates were produced. Equal amounts of protein contained in the cell lysates were used for immunoblotting with anti-IKKy/NEMO antibodies as shown in FIG. 12. IKKy/NEMO is a constitutively expressed relatively labile protein. Thus successful inhibition of cellular protein translation should result in significant decline of anti-IKKy/NEMO signal.
# HIF-1α protein = assay: Hypoxia induced HIF-1α protein accumulation in 293T cells (immunoblotting); format: cell-based, human; settings: 250 nM, 1 h preincubation, hypoxia 4 h, 1% O2
# Description: Effects of IMD-026259, IMD-026260 and IMD-019064 on the stabilisation/accumulation of HIF-1α protein were investigated. 293T cells were preincubated with the indicated concentrations of all three compounds. After 1 h of pre-incubation, 293T cells were pre-incubated with the indicated concentrations of compounds and then further incubated under normoxic or hypoxic (4 h, 1% O2) conditions respectively. After lysis of cells in 1×SDS sample buffer and sonication, the samples were analyzed for HIF-1α abundance by immunoblotting.
smiles,measurement,setting,value
"CNCCOc1ccc2c(c1)OC1(c3ccc(Cl)cc3)C(c3ccccc3)CC(O)C21O (stereo not drawn) [IMD-026260, (1,3a,8b)-3a-(4-chlorophenyl)-6-(2-(methylamino)ethoxy)-3-phenyl-2,3,3a,8b-tetrahydro-1H-benzo[d]cyclopenta[b]furan-1,8b-diol]",reduction of human vessel number compared to a vehicle control,[1],42%
same,IC50,"HUVEC; Homo sapiens, HUVEC, Deferoxamine 100 μM, 24 hours, collagen matrix, read-out: IC50, hypoxia induced EC (HUVEC) sprouting",0.013 µM
same,difference in HUVEC and fibroblast sensitivity,HUVEC; NHDF IC50 versus Deferoxamine-induced HUVEC IC50,greater than thirteen-fold
same,IC50,NHDF (fibroblast),0.18 µM
same,anti-IKKy/NEMO signal (cellular protein translation),IKKy/NEMO,did not result in reduced anti-IKKy/NEMO signals
same,block of HIF-1α protein accumulation,HIF-1α protein,almost completely block
